Assay results: ChEMBL document CHEMBL1201861, “Genomics of Drug Sensitity in Cancer screening data, Wellcome Trust Sanger Institute”

Tests used:
Assay in all cases: cells
SK-PN-DW = format: functional, cell-based; details: Homo sapiens;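 also: growth inhibition measured with a viability assay on these cells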
Description: SANGER: Inhibition of human SK-PN-DW cell growth in a cell viability assay.

RERF-LC-MS = format: functional, cell-based, Homo sapiens; details: Homo sapiens, RERF-LC-MS;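 also: growth inhibition of human RERF-LC-MS cells, read out by a cell viability assay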
Description: SANGER: Inhibition of human RERF-LC-MS cell growth in a cell viability assay.

HLE = format: functional, cell-based, Homo sapiens; details: Homo sapiens, HLE;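 also: growth inhibition of human HLE cells, read out by a cell viability assay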
Description: SANGER: Inhibition of human HLE cell growth in a cell viability assay.

JAR = format: functional, cell-based, Homo sapiens; details: Homo sapiens, JAR;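 also: growth inhibition of human JAR cells determined with a cell viability assay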
Description: SANGER: Inhibition of human JAR cell growth in a cell viability assay.

NCI-H226 = format: functional, cell-based, Homo sapiens; details: Homo sapiens, NCI-H226;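 also: cell viability read-out used to gauge growth inhibition of the cells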
Description: SANGER: Inhibition of human NCI-H226 cell growth in a cell viability assay.

CAPAN-1 = format: functional, cell-based, Homo sapiens; details: Homo sapiens, CAPAN-1;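 also: growth suppression of CAPAN-1 cells, read out by a cell viability assay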
Description: SANGER: Inhibition of human CAPAN-1 cell growth in a cell viability assay.

NCI-H510A = format: functional, cell-based; details: Homo sapiens;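 also: growth inhibition of NCI-H510A cells, read out with a cell viability assay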
DOK = format: functional, cell-based, Homo sapiens; details: Homo sapiens, DOK;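 also: cell viability assay read-out, values reflect inhibition of cell growth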
Description: SANGER: Inhibition of human DOK cell growth in a cell viability assay.

KU-19-19 = format: functional, cell-based, Homo sapiens; details: Homo sapiens, KU-19-19
Description: SANGER: Inhibition of human KU-19-19 cell growth in a cell viability assay.

COLO-679 = format: functional, cell-based, Homo sapiens; details: Homo sapiens, COLO-679
Description: SANGER: Inhibition of human COLO-679 cell growth in a cell viability assay.

EW-1 = format: functional, cell-based, Homo sapiens; details: Homo sapiens, EW-1
Description: SANGER: Inhibition of human EW-1 cell growth in a cell viability assay.

ETK-1 = format: functional, cell-based, Homo sapiens; details: Homo sapiens, ETK-1;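 also: growth inhibition of human ETK-1 cells, read out with a cell viability assay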
Description: SANGER: Inhibition of human ETK-1 cell growth in a cell viability assay.

RKO = format: functional, cell-based, Homo sapiens; details: Homo sapiens, RKO;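 also: growth inhibition of human RKO cells, read out with a cell viability assay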
Description: SANGER: Inhibition of human RKO cell growth in a cell viability assay.

ACHN = format: functional, cell-based, Homo sapiens; details: Homo sapiens, ACHN;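 also: cell viability read-out used to gauge how strongly growth of human ACHN cells is suppressed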
Description: SANGER: Inhibition of human ACHN cell growth in a cell viability assay.

SH-4 = format: functional, cell-based, Homo sapiens; details: Homo sapiens, SH-4;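 also: growth inhibition of SH-4 cells, read out with a cell viability assay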
Description: SANGER: Inhibition of human SH-4 cell growth in a cell viability assay.

RMG-I = format: functional, cell-based, Homo sapiens; details: Homo sapiens, RMG-I;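 also: growth inhibition of human RMG-I cells, read out with a cell viability assay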
Description: SANGER: Inhibition of human RMG-I cell growth in a cell viability assay.

CP50-MEL-B = format: functional, cell-based, Homo sapiens; details: Homo sapiens, CP50-MEL-B;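 also: growth inhibition of the human cell line, measured with a cell viability read-out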
Description: SANGER: Inhibition of human CP50-MEL-B cell growth in a cell viability assay.

639-V = format: functional, cell-based, Homo sapiens; details: Homo sapiens, 639-V;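 also: growth inhibition of 639-V cells, read out with a cell viability assay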
Description: SANGER: Inhibition of human 639-V cell growth in a cell viability assay.

SW684 = format: functional, cell-based, Homo sapiens; details: Homo sapiens, SW684;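 also: growth inhibition of human SW684 cells, measured by a cell viability assay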
Description: SANGER: Inhibition of human SW684 cell growth in a cell viability assay.

L-428 = format: functional, cell-based; details: Homo sapiens
Description: SANGER: Inhibition of human L-428 cell growth in a cell viability assay.

DEL = format: functional, cell-based; details: Homo sapiens;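 also: growth inhibition of the human DEL cell line, read out with a cell viability assay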
Description: SANGER: Inhibition of human DEL cell growth in a cell viability assay.

EW-18 = format: functional, cell-based; details: Homo sapiens;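 also: growth inhibition of EW-18 cells, read out by a cell viability assay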
Description: SANGER: Inhibition of human EW-18 cell growth in a cell viability assay.

T98G = format: functional, cell-based, Homo sapiens; details: Homo sapiens, T98G;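 also: growth inhibition of T98G cells, read out by a cell viability assay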
Description: SANGER: Inhibition of human T98G cell growth in a cell viability assay.

UACC-893 = format: functional, cell-based, Homo sapiens; details: Homo sapiens, UACC-893
Description: SANGER: Inhibition of human UACC-893 cell growth in a cell viability assay.

SK-MEL-1 = format: functional, cell-based; details: Homo sapiens;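 also: growth inhibition of human SK-MEL-1 cells, read out by a cell viability assay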
Description: SANGER: Inhibition of human SK-MEL-1 cell growth in a cell viability assay.

NCI-H1838 = format: functional, cell-based, Homo sapiens; details: Homo sapiens, NCI-H1838;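 also: growth inhibition of NCI-H1838 cells, determined with a cell viability readout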
Description: SANGER: Inhibition of human NCI-H1838 cell growth in a cell viability assay.

SW1710 = format: functional, cell-based, Homo sapiens; details: Homo sapiens, SW1710;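 also: growth inhibition of SW1710 cells, determined with a cell viability assay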
Description: SANGER: Inhibition of human SW1710 cell growth in a cell viability assay.

BCPAP = format: functional, cell-based, Homo sapiens; details: Homo sapiens, BCPAP;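 also: growth inhibition of BCPAP cells, read out in a cell viability assay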
Description: SANGER: Inhibition of human BCPAP cell growth in a cell viability assay.

NCI-H727 = format: functional, cell-based, Homo sapiens; details: Homo sapiens, NCI-H727;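 also: growth inhibition of human NCI-H727 cells, read out with a cell viability assay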
Description: SANGER: Inhibition of human NCI-H727 cell growth in a cell viability assay.

SF-539 = format: functional, cell-based, Homo sapiens; details: Homo sapiens, SF-539;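 also: Read-out is a cell viability assay, with IC50 reflecting inhibition of cell growth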
Description: SANGER: Inhibition of human SF539 cell growth in a cell viability assay.

LS-513 = format: functional, cell-based, Homo sapiens; details: Homo sapiens, LS-513
Description: SANGER: Inhibition of human LS-513 cell growth in a cell viability assay.

CAL-54 = format: functional, cell-based, Homo sapiens; details: Homo sapiens, CAL-54;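 also: growth inhibition of CAL-54 cells, read out by a viability measurement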
Description: SANGER: Inhibition of human CAL-54 cell growth in a cell viability assay.

TE-11 = format: functional, cell-based, Homo sapiens; details: Homo sapiens, TE-11;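 also: growth inhibition of human TE-11 cells, read out by a cell viability assay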
Description: SANGER: Inhibition of human TE-11 cell growth in a cell viability assay.

NOS-1 = format: functional, cell-based, Homo sapiens; details: Homo sapiens, NOS-1;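 also: growth inhibition of the human NOS-1 cell line, read out with a cell viability assay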
Description: SANGER: Inhibition of human NOS-1 cell growth in a cell viability assay.

T-24 = format: functional, cell-based, Homo sapiens; details: Homo sapiens, T-24;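 also: growth inhibition of T-24 cells, read out with a cell viability assay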
Description: SANGER: Inhibition of human T-24 cell growth in a cell viability assay.

HEC-1 = format: functional, cell-based, Homo sapiens; details: Homo sapiens, HEC-1;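 also: growth inhibition of the cell line, read out with a cell viability assay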
Description: SANGER: Inhibition of human HEC-1 cell growth in a cell viability assay.

UACC-62 = format: functional, cell-based, Homo sapiens; details: Homo sapiens, UACC-62;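 also: growth inhibition of human UACC-62 cells, read out by a cell viability assay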
Description: SANGER: Inhibition of human UACC-62 cell growth in a cell viability assay.

MKN-45 = format: functional, cell-based, Homo sapiens; details: Homo sapiens, MKN-45;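 also: growth inhibition of human MKN-45 cells, measured with a cell viability assay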
MZ2-MEL = format: functional, cell-based, Homo sapiens; details: Homo sapiens, MZ2-MEL;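 also: growth inhibition of MZ2-MEL cells read out with a cell viability assay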
Description: SANGER: Inhibition of human MZ2-MEL cell growth in a cell viability assay.

MEL-HO = format: functional, cell-based, Homo sapiens; details: Homo sapiens, MEL-HO
Description: SANGER: Inhibition of human MEL-HO cell growth in a cell viability assay.

S-117 = format: functional, cell-based, Homo sapiens; details: Homo sapiens, S-117
Description: SANGER: Inhibition of human S-117 cell growth in a cell viability assay.

Daoy = format: functional, cell-based, Homo sapiens; details: Homo sapiens, Daoy;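 also: daoy cell growth inhibition, read out as cell viability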
Description: SANGER: Inhibition of human Daoy cell growth in a cell viability assay.

NUGC-3 = format: functional, cell-based, Homo sapiens; details: Homo sapiens, NUGC-3;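 also: growth inhibition of human NUGC-3 cells, read out with a cell viability assay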
Description: SANGER: Inhibition of human NUGC-3 cell growth in a cell viability assay.

DOHH-2 = format: functional, cell-based; details: Homo sapiens;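 also: growth inhibition of human DOHH-2 cells, read out with a cell viability assay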
Description: SANGER: Inhibition of human DOHH-2 cell growth in a cell viability assay.

SNU-C2B = format: functional, cell-based, Homo sapiens; details: Homo sapiens, SNU-C2B;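 also: cell viability readout used to measure compound-driven suppression of SNU-C2B cell proliferation, IC50 marking half-maximal growth inhibition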
Description: SANGER: Inhibition of human SNU-C2B cell growth in a cell viability assay.

GCIY = format: functional, cell-based, Homo sapiens; details: Homo sapiens, GCIY;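 also: growth inhibition of the human GCIY cell line, read out by a cell viability assay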
Description: SANGER: Inhibition of human GCIY cell growth in a cell viability assay.

SW48 = format: functional, cell-based, Homo sapiens; details: Homo sapiens, SW48;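 also: growth inhibition of SW48 cells, read out with a cell viability assay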
Description: SANGER: Inhibition of human SW48 cell growth in a cell viability assay.

EW-24 = format: functional, cell-based; details: Homo sapiens;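 also: human EW-24 cancer cell line, growth inhibition read out via a cell viability assay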
Description: SANGER: Inhibition of human EW-24 cell growth in a cell viability assay.

HuO-3N1 = format: functional, cell-based, Homo sapiens; details: Homo sapiens, HuO-3N1;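 also: cell viability readout used to measure how strongly compounds suppress proliferation of human HuO-3N1 cells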
Description: SANGER: Inhibition of human HuO-3N1 cell growth in a cell viability assay.

SW756 = format: functional, cell-based, Homo sapiens; details: Homo sapiens, SW756;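 also: growth inhibition of human SW756 cells, read out with a cell viability assay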
Description: SANGER: Inhibition of human SW756 cell growth in a cell viability assay.

HCC2157 = format: functional, cell-based; details: Homo sapiens;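 also: growth inhibition of the cancer cell line, read out as cell viability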
Description: SANGER: Inhibition of human HCC2157 cell growth in a cell viability assay.

TGW = format: functional, cell-based; details: Homo sapiens;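 also: growth inhibition of human TGW cells, read out with a cell viability assay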
Description: SANGER: Inhibition of human TGW cell growth in a cell viability assay.

CN(C)C/C=C/C(=O)Nc1cc2c(Nc3ccc(F)c(Cl)c3)ncnc2cc1O[C@H]1CCOC1 [AFATINIB]
IC50 (SK-PN-DW): > 500 nM | IC50 (RERF-LC-MS): > 500 nM | IC50 (HLE): 350 nM | IC50 (JAR): > 500 nM | IC50 (NCI-H226): > 500 nM | IC50 (CAPAN-1): > 500 nM | IC50 (NCI-H510A): > 500 nM | IC50 (DOK): 31.9 nM | IC50 (KU-19-19): > 500 nM | IC50 (COLO-679): > 500 nM | IC50 (EW-1): > 500 nM | IC50 (ETK-1): > 500 nM | IC50 (RKO): > 500 nM | IC50 (ACHN): 320 nM | IC50 (SH-4): > 500 nM | IC50 (RMG-I): > 500 nM | IC50 (CP50-MEL-B): > 500 nM | IC50 (639-V): > 500 nM | IC50 (SW684): > 500 nM | IC50 (L-428): > 500 nM | IC50 (DEL): > 500 nM | IC50 (EW-18): > 500 nM | IC50 (T98G): > 500 nM | IC50 (UACC-893): 119 nM | IC50 (SK-MEL-1): > 500 nM | IC50 (NCI-H1838): > 500 nM | IC50 (SW1710): > 500 nM | IC50 (BCPAP): > 500 nM | IC50 (NCI-H727): > 500 nM | IC50 (SF-539): > 500 nM | IC50 (LS-513): > 500 nM | IC50 (CAL-54): > 500 nM | IC50 (TE-11): > 500 nM | IC50 (NOS-1): > 500 nM | IC50 (T-24): > 500 nM | IC50 (HEC-1): > 500 nM | IC50 (UACC-62): > 500 nM | IC50 (MKN-45): > 500 nM | IC50 (MZ2-MEL): > 500 nM | IC50 (MEL-HO): > 500 nM | IC50 (S-117): > 500 nM | IC50 (Daoy): > 500 nM | IC50 (NUGC-3): 384 nM | IC50 (DOHH-2): > 500 nM | IC50 (SNU-C2B): > 500 nM | IC50 (GCIY): > 500 nM | IC50 (SW48): > 500 nM | IC50 (EW-24): > 500 nM | IC50 (HuO-3N1): > 500 nM | IC50 (SW756): > 500 nM

COc1ccc(C2=N[C@@H](c3ccc(Cl)cc3)[C@@H](c3ccc(Cl)cc3)N2C(=O)N2CCNC(=O)C2)c(OC(C)C)c1 [NUTLIN-3]
IC50 (SK-PN-DW): > 8000 nM | IC50 (RERF-LC-MS): > 8000 nM | IC50 (HLE): > 8000 nM | IC50 (JAR): > 8000 nM | IC50 (NCI-H226): > 8000 nM | IC50 (CAPAN-1): > 8000 nM | IC50 (DOK): > 8000 nM | IC50 (KU-19-19): > 8000 nM | IC50 (COLO-679): > 8000 nM | IC50 (EW-1): > 8000 nM | IC50 (ETK-1): > 8000 nM | IC50 (RKO): 3540 nM | IC50 (ACHN): > 8000 nM | IC50 (SH-4): > 8000 nM | IC50 (RMG-I): > 8000 nM | IC50 (CP50-MEL-B): 4240 nM | IC50 (639-V): > 8000 nM | IC50 (SW684): > 8000 nM | IC50 (L-428): > 8000 nM | IC50 (DEL): > 8000 nM | IC50 (EW-18): > 8000 nM | IC50 (HCC2157): > 8000 nM | IC50 (TGW): > 8000 nM | IC50 (T98G): > 8000 nM | IC50 (UACC-893): > 8000 nM | IC50 (SK-MEL-1): > 8000 nM | IC50 (NCI-H1838): > 8000 nM | IC50 (SW1710): > 8000 nM | IC50 (BCPAP): > 8000 nM | IC50 (NCI-H727): > 8000 nM | IC50 (SF-539): > 8000 nM | IC50 (LS-513): 6790 nM | IC50 (CAL-54): 4530 nM | IC50 (TE-11): > 8000 nM | IC50 (NOS-1): > 8000 nM | IC50 (T-24): > 8000 nM | IC50 (HEC-1): > 8000 nM | IC50 (UACC-62): > 8000 nM | IC50 (MKN-45): > 8000 nM | IC50 (MZ2-MEL): 4500 nM | IC50 (MEL-HO): 5860 nM | IC50 (S-117): > 8000 nM | IC50 (Daoy): > 8000 nM | IC50 (NUGC-3): > 8000 nM | IC50 (DOHH-2): 2420 nM | IC50 (SNU-C2B): > 8000 nM | IC50 (GCIY): > 8000 nM | IC50 (SW48): > 8000 nM | IC50 (HuO-3N1): > 8000 nM | IC50 (SW756): > 8000 nM

C=CCNC1=C2C[C@@H](C)C[C@H](OC)[C@H](O)[C@@H](C)/C=C(\C)[C@H](OC(N)=O)[C@@H](OC)/C=C\C=C(/C)C(=O)NC(=CC1=O)C2=O [TANESPIMYCIN]
IC50 (SK-PN-DW): > 1000 nM | IC50 (RERF-LC-MS): 746 nM | IC50 (HLE): > 1000 nM | IC50 (JAR): > 1000 nM | IC50 (NCI-H226): > 1000 nM | IC50 (CAPAN-1): 248 nM | IC50 (DOK): 49 nM | IC50 (KU-19-19): > 1000 nM | IC50 (COLO-679): 112 nM | IC50 (EW-1): > 1000 nM | IC50 (ETK-1): 159 nM | IC50 (RKO): 118 nM | IC50 (ACHN): 606 nM | IC50 (SH-4): 114 nM | IC50 (RMG-I): > 1000 nM | IC50 (CP50-MEL-B): 34.5 nM | IC50 (639-V): 150 nM | IC50 (SW684): 65.9 nM | IC50 (L-428): > 1000 nM | IC50 (DEL): 185 nM | IC50 (EW-18): 389 nM | IC50 (HCC2157): 388 nM | IC50 (TGW): > 1000 nM | IC50 (T98G): 41 nM | IC50 (UACC-893): 637 nM | IC50 (SK-MEL-1): > 1000 nM | IC50 (NCI-H1838): > 1000 nM | IC50 (SW1710): 295 nM | IC50 (BCPAP): 189 nM | IC50 (NCI-H727): > 1000 nM | IC50 (SF-539): 66.8 nM | IC50 (LS-513): 240 nM | IC50 (CAL-54): > 1000 nM | IC50 (TE-11): 80 nM | IC50 (NOS-1): 975 nM | IC50 (T-24): 332 nM | IC50 (HEC-1): 65.9 nM | IC50 (UACC-62): 322 nM | IC50 (MKN-45): 82.2 nM | IC50 (MZ2-MEL): 65.5 nM | IC50 (MEL-HO): 72.6 nM | IC50 (S-117): 206 nM | IC50 (Daoy): 317 nM | IC50 (NUGC-3): 145 nM | IC50 (DOHH-2): > 1000 nM | IC50 (SNU-C2B): 580 nM | IC50 (GCIY): 918 nM | IC50 (SW48): 50.4 nM | IC50 (HuO-3N1): 52.4 nM | IC50 (SW756): 442 nM
